Earlier results on two compounds are cited in patent US20180271826A1, “DRY POWDERS OF CANNABINOIDS AND METHODS FOR PREPARING DRY POWDERS” (COLORADO CAN LLC, priority 2017, published 2018).

For data set [1] the following is noted: burning of cannabis cigarettes (Elzinga 2015).
The conditions of data set [2]: cannabis resin, 4 years, 4° C. in the dark (Trofin 2012).
For data set [3] the following is noted: plant material, room temperature (20° C.) near a source of light, a little under two years (Fairbarn 1976).
For data set [4] the following is noted: transdermal patch (Stinchcomb 2004).
The conditions of data set [5]: oral ingestion (Ohlsson 1980).

Take `C=C(C)[C@@H]1CCC(C)=C[C@H]1c1c(O)cc(CCCCC)cc1O` [CBD, cannabidiol]: in data set [1], the “theoretically present amount recovered in total smoke and remaining ash” value is reported as 38.4%. Further, the original content degraded in data set [2] was 55.75%.

Take `CCCCCc1cc(O)c2c(c1)OC(C)(C)[C@@H]1CCC(C)=C[C@@H]21` [THC, Δ9-tetrahydrocannabinol]: in data set [1], the “theoretically present amount recovered in total smoke and remaining ash” value is given as 36.9%. The “original THC content remaining” value in data set [3] is recorded as 37%. Moreover, in data set [4], the “peak THC concentration” value is 4.4 ng/mL and the “time of peak THC concentration” value is 1.4 h. Also, in data set [5], the “time of peak THC concentrations after dosing” value was 1 to 5 h. For the same compound, the original content degraded in data set [2] is listed as 95.77%.
